Assay results as given in patent US9981942B2, “Piperidine derivatives having multimodal activity against pain” (LABORATORIOS DEL DR. ESTEVE S.A., priority 2013, dated 2018).

Test system: σ1 receptor and the μ-opiod receptor
Test: μ and σ1 dual binding: combined class from the Ki of both radioligand assays
Set-up: species or system human; key to μ and σ1 dual binding: +: Both Ki-μ and Ki-σ1>=500 nM; ++: One Ki<500 nM while the other Ki is >=500 nM; +++: Both Ki-μ and Ki-σ1<500 nM; ++++: Both Ki-μ and Ki-σ1<100 nM
Conditions: transfected HEK-293 membranes (σ1), transfected CHO-K1 cell membranes (μ); for μ and σ1 dual binding: combined class for Ki-μ and Ki-σ1
Protocol: To investigate binding properties of σ1 receptor ligands to human σ1 receptor, transfected HEK-293 membranes and [^3H](+)-pentazocine (Perkin Elmer, NET-1056), as the radioligand, were used. The assay was carried out with 7 μg of membrane suspension, 5 nM of [^3H](+)-pentazocine in either absence or presence of either buffer or 10 μM Haloperidol for total and non-specific binding, respectively. Binding buffer contained Tris-HCl 50 mM at pH 8. Plates were incubated at 37° C. for 120 minutes. After the incubation period, the reaction mix was then transferred to MultiScreen HTS, FC plates (Millipore), filtered and plates were washed 3 times with ice-cold 10 mM Tris-HCL (pH7.4). Filters were dried and counted at approximately 40% efficiency in a MicroBeta scintillation counter (Perkin-Elmer) using EcoScint liquid scintillation cocktail
To investigate binding properties of mu-opioid receptor ligands to human μ-opioid receptor, transfected CHO-K1 cell membranes and [^3H]-DAMGO (Perkin Elmer, ES-542-C), as the radioligand, were used. The assay was carried out with 20 μg of membrane suspension, 1 nM of [^3H]-DAMGO in either absence or presence of either buffer or 10 μM Naloxone for total and non-specific binding, respectively. Binding buffer contained Tris-HCl 50 mM, MgCl2 5 mM at pH 7.4. Plates were incubated at 27° C. for 60 minutes. After the incubation period, the reaction mix was then transferred to MultiScreen HTS, FC plates (Millipore), filtered and plates were washed 3 times with ice-cold 10 mM Tris-HCL (pH 7.4). Filters were dried and counted at approximately 40% efficiency in a MicroBeta scintillation counter (Perkin-Elmer) using EcoScint liquid scintillation cocktail.
The following scale as been adopted for representing the binding to the σ1 receptor and the μ-opiod receptor expressed as Ki: • + Both Ki-μ and Ki-σ1>=500 nM • ++ One Ki<500 nM while the other Ki is >=500 nM • +++ Both Ki-μ and Ki-σ1<500 nM • ++++ Both Ki-μ and Ki-σ1<100 nM

SMILES: Oc1cccc(C2CCN(Cc3cn([C@@H]4CCC[C@H]4O)nn3)CC2)c1 (racemic) [Example 5, (±)-(trans)-3-(1-((1-(2-hydroxycyclopentyl)-1H-1,2,3-triazol-4-yl)methyl)piperidin-4-yl)phenol]
- μ and σ1 dual binding: ++

SMILES: CS(=O)(=O)Nc1cccc(C2CCN(Cc3cn([C@@H]4c5ccccc5C[C@H]4O)nn3)CC2)c1 (racemic) [Example 70, (±)-(trans)-N-(3-(1-((1-(2-hydroxy-2,3-dihydro-1H-inden-1-yl)-1H-1,2,3-triazol-4-yl)methyl)piperidin-4-yl)phenyl)methanesulfonamide]
- μ and σ1 dual binding: ++

SMILES: CC(C)S(=O)(=O)Nc1cccc([C@@H]2CCN(Cc3cn(-c4ccccc4)nn3)C[C@@H]2O)c1 (racemic) [Example 115, N-(3-((3R,4S)-3-hydroxy-1-((1-phenyl-1H-1,2,3-triazol-4-yl)methyl)piperidin-4-yl)phenyl)propane-2-sulfonamide]
- Ki range for both μ and σ1 (dual-binding class): < 0.5 µM

SMILES: CC(C)S(=O)(=O)Nc1cccc([C@H]2CCN(Cc3cn(-c4ccccc4)nn3)C[C@H]2O)c1 (racemic) [Example 127, N-(3-((3S,4R)-3-hydroxy-1-((1-phenyl-1H-1,2,3-triazol-4-yl)methyl)piperidin-4-yl)phenyl)propane-2-sulfonamide]
- μ and σ1 dual binding: ++

SMILES: OC[C@@H](c1ccccc1)n1cc(CN2CCC(c3cccc(O)c3)CC2)nn1 (stereo in doubt) [Example 149, (R)-3-(1-((1-(2-hydroxy-1-phenylethyl)-1H-1,2,3-triazol-4-yl)methyl)piperidin-4-yl)phenol]
- Ki range for both μ and σ1 (dual-binding class): < 0.5 µM

SMILES: OC[C@H](c1ccccc1)n1cc(CN2CCC(c3cccc(O)c3)CC2)nn1 (stereo in doubt) [Example 150, (S)-3-(1-((1-(2-hydroxy-1-phenylethyl)-1H-1,2,3-triazol-4-yl)methyl)piperidin-4-yl)phenol]
- Ki range for both μ and σ1 (dual-binding class): < 0.5 µM

SMILES: CC(C)S(=O)(=O)Nc1cccc(C2CCN(Cc3cn(-c4ccccc4)nn3)CC2)c1 [Example 1, N-(3-(1-((1-phenyl-1H-1,2,3-triazol-4-yl)methyl)piperidin-4-yl)phenyl)propane-2-sulfonamide]
- Ki range for both μ and σ1 (dual-binding class): < 0.1 µM

SMILES: Oc1cccc(C2CCN(Cc3cn(-c4ccccc4)nn3)CC2)c1 [Example 2, 3-(1-((1-phenyl-1H-1,2,3-triazol-4-yl)methyl)piperidin-4-yl)phenol]
- Ki range for both μ and σ1 (dual-binding class): < 0.1 µM

SMILES: CCCn1cc(CN2CCC(c3cccc(O)c3)CC2)nn1 [Example 3, 3-(1-((1-propyl-1H-1,2,3-triazol-4-yl)methyl)piperidin-4-yl)phenol]
- Ki range for both μ and σ1 (dual-binding class): < 0.5 µM

SMILES: Oc1cccc(C2CCN(Cc3cn(Cc4ccccc4F)nn3)CC2)c1 [Example 4, 3-(1-((1-(2-fluorobenzyl)-1H-1,2,3-triazol-4-yl)methyl)piperidin-4-yl)phenol]
- Ki range for both μ and σ1 (dual-binding class): < 0.1 µM

SMILES: NC(=O)c1cccc(C2CCN(Cc3cn(-c4ccccc4)nn3)CC2)c1 [Example 6, 3-(1-((1-phenyl-1H-1,2,3-triazol-4-yl)methyl)piperidin-4-yl)benzamide]
- Ki range for both μ and σ1 (dual-binding class): < 0.5 µM

SMILES: CCC(=O)Nc1cccc(C2CCN(Cc3cn(-c4ccccc4)nn3)CC2)c1 [Example 7, N-(3-(1-((1-phenyl-1H-1,2,3-triazol-4-yl)methyl)piperidin-4-yl)phenyl)propionamide]
- Ki range for both μ and σ1 (dual-binding class): < 0.5 µM

SMILES: Oc1cccc(C2CCN(Cc3cn(Cc4ccccc4)nn3)CC2)c1 [Example 8, 3-(1-((1-benzyl-1H-1,2,3-triazol-4-yl)methyl)piperidin-4-yl)phenol]
- Ki range for both μ and σ1 (dual-binding class): < 0.1 µM

SMILES: CC(=O)Nc1cccc(C2CCN(Cc3cn(-c4ccccc4)nn3)CC2)c1 [Example 9, N-(3-(1-((1-phenyl-1H-1,2,3-triazol-4-yl)methyl)piperidin-4-yl)phenyl)acetamide]
- Ki range for both μ and σ1 (dual-binding class): < 0.5 µM

SMILES: Oc1cccc(C2CCN(Cc3cn(-c4cccnc4)nn3)CC2)c1 [Example 10, 3-(1-((1-(pyridin-3-yl)-1H-1,2,3-triazol-4-yl)methyl)piperidin-4-yl)phenol]
- Ki range for both μ and σ1 (dual-binding class): < 0.5 µM
